Data: US10251931B2, “Cyclic peptides and methods using same” (priority 2014, dated 2019)
Entries after “also recorded” stand apart in the source; their conditions may differ. Starred links: 1 amine or outer side, 2 acyl side, 3 side chain; linkers in the order of their positions; H or OH if unused. Positions of bridges follow the written chain, without caps; N, C: chain ends. Non-standard residues stand in square brackets, D forms with d. Residues, ends and D or L forms follow the SMILES beside them. ξ: configuration not given here. Pro(cis-4-Trz(4-CH2CH2Ph)) = O=C(O)[C@@H]1C[C@H](n2cc(CCc3ccccc3)nn2)CN1; X4 = O=C([C@@H]1C[C@H](n2cc(C3C4CC5CC(C4)CC3C5)nn2)CN1[*:1])[*:2]; Ile(3ξ) = CCC(C)[C@H](N)C(=O)O; Orn = NCCC[C@H](N)C(=O)O; Dab = NCC[C@H](N)C(=O)O; ξD = NC(CC(=O)O)C(=O)O

Target: T1, HIV-1 gp120 (Human immunodeficiency virus type 1 group M subtype B, UniProt P35961)
T1 construct: Expression and Purification of Wild-Type gp120YU-2; made in house; host or cells: HEK 293F
Assay type: binding
Procedure: SPR competition binding assays were used to assess the structural elements required for cyclic hexapeptide binding to gp120. […] In an attempt to restore the lost contact, the length of the two linkers was changed (Linker 1 and Linker 2 in FIG. 12).
SPR experiments were performed on a Biacore 3000 optical biosensor (GE Healthcare). All experiments were carried out at 25° C. using standard PBS buffer pH=7.4 with 0.005% surfactant Tween. A CM5 sensor chip was derivatized by standard 1-ethyl-3-(3-dimethylaminopropyl) carbodiimide (EDC)/N-hydroxysuccinimide (NHS) chemistry, and coupling was done through ligand amine groups. Antibody 2B6R (α-human IL5R) was immobilized for negative control surfaces. For competition experiments, soluble four domain CD4 and 17b antibody were immobilized on the surface through standard EDC/NHS chemistry. For kinetic analyses, typically 2000-3000 RUs of protein reagents were immobilized on SPR chips, and analytes were passed over the surface at 50-100 μL/min. Surface regeneration was achieved by a 5 μL injection of 10 mM HCl solution at 100 μL/min. […] Regeneration of the surface was achieved by a single 10 second pulse of 1.3 M NaCl/35 mM NaOH and single 5-second pulse of 10 mM glycine, pH 1.5, for sCD4 and mAb 17b, respectively. All analyses were performed in triplicate.
The inhibition curve was converted into a calibration curve by the use of a fitting function. The fitting was done using the 4-parameter Equation (1) from BIAevaluation software,
The cyclic peptides of the invention were tested against HIV-1 gp120 by SPR competition assays as described elsewhere herein. A mixture of the cyclic peptide/gp120 solutions was passed over SPR chip immobilized with CD4 and 17b separately. The competition assay evaluated the ability of each peptide to inhibit the binding between gp120 and both soluble CD4 and 17b antibody, a surrogate for co-receptor.

SMILES	Dual receptor site (CD4 and 17b) inhibition of gp120, in words (SPR competition)	IC50 value in words (SPR competition)	fold improvement vs AAR031 (two-carbon Linker 1 (Dab))
CC[C@H](C)[C@@H]1NC(=O)[C@H](CC(N)=O)NC(=O)[C@H](CC(N)=O)NC(=O)[C@@H](N)CCC(=O)NCCCC[C@@H](C(N)=O)NC(=O)[C@H](Cc2c[nH]c3ccccc23)NC(=O)[C@@H]2C[C@H](n3cc(CCc4ccccc4)nn3)CN2C1=O [AAR026, 2,2′-((3S,6S,15S,18S,21S,24S,28S,29aS)-3-((1H-indol-3-yl)methyl)-15-amino-24-((S)-sec-butyl)-6-carbamoyl-1,4,12,16,19,22,25-heptaoxo-28-(4-phenethyl-1H-1,2,3-triazol-1-yl)octacosahydro-1H-pyrrolo[2,1-f][1,4,7,10,13,16,22]heptaazacycloheptacosine-18,21-diyl)diacetamide] (H-ENNI[Pro(cis-4-Trz(4-CH2CH2Ph))]WK-NH2; lactam 1-7)	retained the dual receptor site inhibitory signature of linear PTs; also recorded: dual inhibitors	–	–
CCC(C)[C@@H]1NC(=O)[C@H](CC(N)=O)NC(=O)[C@@H](N)CC(=O)NCCCC[C@@H](C(N)=O)NC(=O)[C@H](Cc2c[nH]c3ccccc23)NC(=O)[C@@H]2C[C@H](n3cc(C4C5CC6CC(C5)CC4C6)nn3)CN2C1=O (stereo partly drawn) [AAR029F, (3S,6S,14S,17S,20S,24S,25aS)-3-((1H-indol-3-yl)methyl)-24-(4-((1R,3S,5S,7S)-adamantan-2-yl)-1H-1,2,3-triazol-1-yl)-14-amino-17-(2-amino-2-oxoethyl)-20-(sec-butyl)-1,4,12,15,18,21-hexaoxotetracosahydro-1H-pyrrolo[2,1-f][1,4,7,10,13,18]hexaazacyclotricosine-6-carboxamide] (H-DN[Ile(3ξ)][X4]WK-NH2; lactam 1-6)	dual inhibitors	–	–
CC[C@H](C)[C@@H]1NC(=O)[C@H](CC(N)=O)NC(=O)[C@@H](N)CCC(=O)NCC[C@@H](C(N)=O)NC(=O)[C@H](Cc2c[nH]c3ccccc23)NC(=O)[C@@H]2C[C@H](n3cc(CCc4ccccc4)nn3)CN2C1=O [AAR030, (3S,6S,13S,16S,19S,23S,24aS)-3-((1H-indol-3-yl)methyl)-13-amino-16-(2-amino-2-oxoethyl)-19-((S)-sec-butyl)-1,4,10,14,17,20-hexaoxo-23-(4-phenethyl-1H-1,2,3-triazol-1-yl)tetracosahydropyrrolo[1,2-g][1,4,7,10,13,17]hexaazacyclodocosine-6-carboxamide] (H-ENI[Pro(cis-4-Trz(4-CH2CH2Ph))]W[Dab]-NH2; lactam 1-6)	inactive	–	–
CC[C@H](C)[C@@H]1NC(=O)[C@H](CC(N)=O)NC(=O)[C@@H](N)CC(=O)NCCC[C@@H](C(N)=O)NC(=O)[C@H](Cc2c[nH]c3ccccc23)NC(=O)[C@@H]2C[C@H](n3cc(CCc4ccccc4)nn3)CN2C1=O [AAR031, (3S,6S,13S,16S,19S,23S,24aS)-3-((1H-indol-3-yl)methyl)-13-amino-16-(2-amino-2-oxoethyl)-19-((S)-sec-butyl)-1,4,11,14,17,20-hexaoxo-23-(4-phenethyl-1H-1,2,3-triazol-1-yl)tetracosahydropyrrolo[2,1-f][1,4,7,10,13,18]hexaazacyclodocosine-6-carboxamide] (H-DNI[Pro(cis-4-Trz(4-CH2CH2Ph))]W[Orn]-NH2; lactam 1-6)	dual inhibitors	micro molar	–
CC[C@H](C)[C@@H]1NC(=O)[C@H](CC(N)=O)NC(=O)C(N)CC(=O)NCC[C@@H](C(N)=O)NC(=O)[C@H](Cc2c[nH]c3ccccc23)NC(=O)[C@@H]2C[C@H](n3cc(CCc4ccccc4)nn3)CN2C1=O (stereo partly drawn) [AAR032, (3S,6S,15S,18S,22S,23aS)-3-((1H-indol-3-yl)methyl)-12-amino-15-(2-amino-2-oxoethyl)-18-((S)-sec-butyl)-1,4,10,13,16,19-hexaoxo-22-(4-phenethyl-1H-1,2,3-triazol-1-yl)docosahydro-1H-pyrrolo[1,2-g][1,4,7,10,13,17]hexaazacyclohenicosine-6-carboxamide] (H-[ξD]NI[Pro(cis-4-Trz(4-CH2CH2Ph))]W[Dab]-NH2; lactam 1-6)	dual inhibitors	–	~10 fold
